Values quoted from earlier work as cited in patent US8748394B2, “Apo A-I mimetic peptides and methods of treatment” (Abbott Cardiovascular Systems Inc., priority 2007, dated 2014).
“Also recorded” adds a separate entry of the source. Square brackets hold non-standard residues; d marks the D form. Ends that are not written are not given here.

Test system: reverse cholesterol transport
Conditions: for function in reverse cholesterol transport in vitro: when a phospholipid complex is presented; for effectiveness in reverse cholesterol transport: without a lipid complex (non-complex form)

Substance	function in reverse cholesterol transport in vitro	effectiveness in reverse cholesterol transport	need of phospholipid complex for effective reverse cholesterol transport
DWFKAFYDKVAEKFKEAF [L-4F] (not fully specified) [18 amino acid Apo A-I mimetic peptide 4F, L enantiomer]	function more effectively	demonstrated an ability to function in a non-complex form	–
DWFKAFYDKVAEKFKEAF [D-4F] ([dD][dW][dF][dK][dA][dF][dY][dD][dK][dV][dA][dE][dK][dF][dK][dE][dA][dF]) [18 amino acid Apo A-I mimetic peptide 4F, D enantiomer]	function more effectively	effective in reverse cholesterol transport without a lipid complex; also recorded: demonstrated an ability to function in a non-complex form	–
Ac-PALEDLRQGLLPVLESFKVFLSALEEYTKKLNTQ-NH2 [33-mer peptide mimetic, 33-mer peptide, helices 9/10]	–	–	requires phospholipid complex formation
